From patent US20120094939A1, “ANTI-VIRAL COMPOUNDS, COMPOSITIONS AND METHODS” (priority 2007, published 2012) come the findings set out here.

Like-named read-outs stand apart in the source and are kept apart here. Bounds are passed on as bounds.

For this assay, the system named is OR6 cells harboring full-length genotype 1b HCV replicon ORN/C-5B/KE (HCV RNA replication). Kind of assay: microbe, parasite or virus in culture. It is filed as cell-based, Hepatitis C virus (strain HCV—O. Conditions: 48 hours; for antiviral activity (in words): OR6 full-length replicon. The source says: HCV Replicon System-Secondary Assays. For validation, OR6 cells stably harboring the full-length genotype 1 replicon, ORN/C-5B/KE9 were used to examine compound activity in a more authentic viral polyprotein context. This replicon was derived from the 1B-2 strain (strain HCV—O, genotype 1b), in which the Renilla luciferase gene is introduced as a fusion protein with neomycin to facilitate the monitoring of HCV replication. This construct contains a tissue culture adaptive mutation in the NS3 region. Cells were cultured in an identical manner to the Huh7/Rep-Feo cells.
Secondary Assays-Hit Validation. Several hits from primary HTS, as well as functionally related compounds, were purchased from Sigma (St. Louis, Mo.), Calbiochem (San Diego, Calif.), and Microsource (Gaylordsville, Conn.). […] Ten mM of stock solutions of the individual compounds to be tested was prepared in the appropriate solvent (DMSO, ethanol, or H2O, according to the manufacturer's information) and stored at −20° C. Cells were seeded into 96-well plates at a density of 2000 cells/well in 100 μL of medium. The cells were incubated for 24 hours at 37° C. to obtain the optimal level of adherence. Solutions of candidate hit compounds were added to wells to achieve final concentrations of 0.1, 1, 10, 50, and 100 μM. The final concentration of DMSO or ethanol in every well was 1% or less by volume. Mock solutions were used as a negative control. PEG-IFN and ribavirin were used as positive controls at various concentrations, alone and in combination. The plates were then incubated at 37° C. with 5% CO2 for 48 hours before they were analyzed. Luminescent signal was generated using the Renilla luciferase assay kit (Promega) according to the manufacturer's instructions. Signal was then detected using a LumiCount (Packard BioScience Company) luminometer. Cell viability was assessed using CellTiter-Glo (Promega), following the manufacturer's instructions. All experiments were performed in triplicate.
Secondary Assays-Data Analysis. Values were presented as a percentage of mock treated control, which was arbitrarily set at 100%. Data were expressed as the mean (±) SD. […] Synergy calculations were performed using CalcuSyn (Biosoft; Cambridge, England).
HCV Replicon System—Secondary Assays: For replicon validation, OR6 cells stably harboring the full-length genotype 1 replicon, ORN/C-5B/KE were used (Burke J. Am. Chem. Soc. (2004) 126:14095-14104). This replicon was derived from the 1B-2 strain (strain HCV—O, genotype 1b), in which the Renilla luciferase gene is introduced as a fusion protein with the Neomycin resistance cassette to facilitate the monitoring of HCV replication. This construct contains a tissue culture adaptive mutation in the NS3 region. Cells were cultured in an identical manner to the Huh7/Rep-Feo cells.
Secondary Assays—Hit Validation: 10 mM of stock solutions of the individual compounds to be tested were prepared in DMSO and stored at −20° C. Cells were seeded into 96-well plates at a density of 2,000 cells/well in 100 μl of medium. The cells were incubated for 24 hours at 37° C. to obtain the optimal level of adherence. Solutions of candidate hit compounds were added to wells to achieve varying final concentrations between 0.01 and 100 μM. The final concentration of DMSO or ethanol in every well was 1% or less by volume. Mock solutions were used as a negative control. Peginterferon-alfa-2b (PEG-Intron; Schering Corp.; Kenilworth, N.J.) and ribavirin (Sigma; St. Louis, Mo.) were used as positive controls at various concentrations, alone and in combination. The plates were then incubated at 37° C. with 5% CO2 for 48 hours before they were analyzed. Luminescent signal was generated using the Renilla luciferase assay kit (Promega; Madison, Wis.) according to the manufacturer's instructions. Signal was then detected using a LumiCount™ (Packard BioScience Company; Downers Grove, Ill.) luminometer.
A general note: Replicon systems follow genome replication, usually without infectious particles.

Setting [1] is: Hepatitis C virus, OR6, 48 h, read-out: IC50 (HCV RNA replication, luciferase), OR6 full-length genotype 1b replicon.

One may read the IC50 as the point on the concentration scale where inhibition reaches its midpoint. Regarding `Cc1cc(C)c(-c2cc([C@H](C)O/N=C3/[C@H]4CCn5c(=O)n(-c6ccccc6)c(=O)n5[C@H]4[C@H](O)[C@@H]4O[C@H]34)on2)c(C)c1` [BUCMLD-B10A11], the IC50 under setting [1] is under 500 nM.

Take `O=C1C2(CO)C=C(Br)C(CC2c2ccccc2)[C@@]12CO2` (some centres unmarked) [SM_A6B5_2P100]: the IC50 under setting [1] was about 7000 nM.

Take `COc1cc2c(cc1OC)-c1c/c(=N\c3c(C)cc(C)cc3C)n(C)c(=O)n1CC2` [trequinsin, reference compound]: the “antiviral activity (in words)” value was “antiviral activity at the lower concentrations of 1 and 10 μM”.

Regarding `CC(=O)OC[C@H]1O[C@H](CCO/N=C2/[C@H]3CCn4c(=O)n(-c5ccccc5)c(=O)n4[C@H]3[C@H](O)[C@@H]3O[C@H]23)C=C[C@@H]1OC(C)=O` [BUCMLD-B10A3], the 50% inhibitory concentration (IC50) is, setting by setting: under setting [1], over 500 nM; (read-out: IC50 (HCV RNA replication, luciferase), OR6 full-length genotype 1b replicon) under 1000 nM.

Turning to `O=C1C2C=C(I)C(CC2OCCCCO)[C@@]12CO2` (some centres unmarked) [SM_A5B3_2P141], the “antiviral activity (in words)” value is “modest antiviral activity”. In addition, under setting [1], the IC50 was in the range of 10000 to 50000 nM.

Take `Cc1cc2c(nc1C)CCCN2CC(C)O/N=C1/[C@H]2CCn3c(=O)n(-c4ccccc4)c(=O)n3[C@H]2[C@H](O)[C@@H]2O[C@H]12` (some centres unmarked) [BUCMLD-B10A5]: the IC50 under setting [1] is about 1000 nM.
